Twelve molecules from patent US4889801A (Daiichi Pure Chemicals Co., Ltd., priority 1986, dated 1989) can be followed below.

The first assay has as its system 3α-hydroxysteroid oxidase. As to the kind of experiment: Enzymatic characteristics: substrate specificity and Km value. The assay is classed as biochemical, Pseudomonas testosterone ATCC 11996.
Conditions: not given
On to `C[C@@]12CCC[C@H]1[C@@H]1CC[C@@H]3C[C@H](O)CC[C@]3(C)[C@H]1CC2` [5β-androstan-3α-ol], for which the “Substrate specificity (oxidase acts on substrate or not)” value is reported as “acts on”.

The assay is the same for the next values; noted with them: against ethiocholan-3α-ol-17-one.
Broadly, the Km is the concentration of substrate that gives half-maximal velocity. Turning to `C[C@]12CC[C@@H](O)C[C@H]1CC[C@@H]1[C@@H]2CC[C@]2(C)C(=O)CC[C@@H]12` [Ethiocholan-3α-ol-17-one], the Km amounted to 800 µM.

The next assay concerns 3α-hydroxysteroid oxidase. As to the kind of experiment: Relative activities of the 3α-hydroxysteroid oxidase for various substrates. The assay is classed as biochemical, Pseudomonas testosterone ATCC 11996. Conditions: substrate of the oxidase; R.A. of cholic acid being 100. As to the method: Thereafter, the microorganism was cultured at the same temperature for 10-24 hours. After completion of the culture, the resultant culture broth was centrifuged to separate and collect cells. The thus-collected cells were suspended at 5° C. in 5 volumes of a 0.02 M phosphate buffer of pH 7.0, which contained 1% (w/v) of "Triton X-100" (BDH Ltd.), to a total volume of 1 l. By a cell disrupter, DINO-MILL (trade mark; manufactured by Willy A. Bachofen Maschinenfabrik AG), the cells were disrupted to release the enzyme. […] The extract was then added with 430 g of ammonium sulfate to a final concentration of 65% saturation, the precipitated fraction was collected by centrifugation. The precipitate was dissolved in a 0.lM phosphate buffer (pH 7) containing 0.1% of "Triton X-100" and the resultant mixture was dialyzed for 24 hours against the same buffer in order to remove any remaining ammonium sulfate.
An azide was added as a preservative to the enzyme solution.
For the molecule `C[C@]12CCC(=O)C[C@@H]1CC[C@@H]1[C@@H]2CC[C@]2(C)C(=O)CC[C@@H]12` [5α-Androstan-3,17-dione], the “R.A. (relative activity)” value was 0%.

On to `C[C@]12CC[C@@H](O)C[C@@H]1CC[C@@H]1[C@@H]2CC[C@]2(C)C(=O)CC[C@@H]12` [5α-Androstan-3α-ol-17-one], for which the “R.A. (relative activity)” value is 0%.

Consider `C[C@]12CCC(=O)C[C@H]1CC[C@@H]1[C@@H]2CC[C@]2(C)C(=O)CC[C@@H]12` [5β-Androstan-3,17-dione], for which the “R.A. (relative activity)” value was 18%.

Turning to `C[C@H](CCC(=O)O)[C@H]1CC[C@H]2[C@@H]3[C@H](O)C[C@@H]4C[C@H](O)CC[C@]4(C)[C@H]3CC[C@]12C` [Chenodeoxycholic acid], the “R.A. (relative activity)” value was 89%.

`CC(C)CCC[C@@H](C)[C@H]1CC[C@H]2[C@@H]3CC=C4C[C@@H](O)CC[C@]4(C)[C@H]3CC[C@]12C` [Cholesterol]: the “R.A. (relative activity)” value worked out at 0%.

Take `C[C@H](CCC(=O)O)[C@H]1CC[C@H]2[C@@H]3[C@H](O)C[C@@H]4C[C@H](O)CC[C@]4(C)[C@H]3C[C@H](O)[C@]12C` [Cholic acid]: the “R.A. (relative activity)” value was found to be 100%.

In the case of `C[C@H](CCC(=O)O)[C@H]1CC[C@H]2[C@@H]3CC[C@@H]4C[C@H](O)CC[C@]4(C)[C@H]3CC[C@]12C` [Cithocholic acid], the “R.A. (relative activity)” value was found to be 57%.

Regarding `C[C@H](CCC(=O)O)[C@H]1CC[C@H]2[C@@H]3CC[C@@H]4C[C@H](O)CC[C@]4(C)[C@H]3C[C@H](O)[C@]12C` [Deoxycholic acid], the “R.A. (relative activity)” value was found to be 86%.

As for `C[C@]12CC[C@@H](O)C[C@H]1CC[C@@H]1[C@@H]2CC[C@]2(C)C(=O)CC[C@@H]12` [Ethiocholan-3α-ol-17-one], the “R.A. (relative activity)” value came to 140%.

In the case of `C[C@H](CCC(=O)NCC(=O)O)[C@H]1CC[C@H]2[C@@H]3[C@H](O)C[C@@H]4C[C@H](O)CC[C@]4(C)[C@H]3C[C@H](O)[C@]12C` [Glycocholic acid], the “R.A. (relative activity)” value is listed as 95%.

`C[C@]12CC[C@H]3[C@@H](CCC4=CC(=O)CC[C@@]43C)[C@@H]1CC[C@@H]2O` [Testosterone]: the “R.A. (relative activity)” value came out at 0%.
